One test addresses IMP-1 (Serratia marcescens, UniProt P52699). The test can be described thus: Enzyme activity: determination of IC50, fluorescence assay with CCF2-FA substrate. Particulars: IMP-1 enzyme 2 pM, CCF2-FA 1.25 μM, 2 hours at 25° C.; read-out: IMP1 IC50. It is filed as biochemical. The essentials: (§1)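 100 mM KH2PO4 pH 7 + 0.005% Tween-20 + 10 μM ZnSO4; CCF2-FA 1.25 μM; NDM-1 1 pM, IMP-1 2 pM, VIM-1 30 pM; cpd 20–0.00063 μM final, DMSO 1:50. 2 h, 25° C. Ex 405/em 460 nm; IC50, 4-param fit.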

The target of another test is NDM-1 (Klebsiella pneumoniae, UniProt C7C422). The description is as above. The test is classed as biochemical. Particulars: NDM-1 enzyme 1 pM, CCF2-FA 1.25 μM, 2 hours at 25° C.; read-out: NDM1 IC50. The essentials:
as §1

The target in another test is VIM-1 (Pseudomonas aeruginosa, UniProt A0A0F7KYQ8). The description is as above. The note with it: VIM-1 enzyme 30 pM, CCF2-FA 1.25 μM, 2 hours at 25° C.; read-out: VIM1 IC50. It is filed as biochemical. The essentials:
as §1

Test [1] has as its system Escherichia coli expressing NDM-1 (CLB30016). As to the kind of experiment: Antibiotic potentiation activity: synergistic concentration (MITC95) with imipenem, growth by OD600. It is filed as cell-based. Particulars: E. coli CLB30016 (NDM-1), 95% inhibition of growth. The essentials: (§2)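 MITC95 = lowest inhibitor concentration giving 95% growth inhibition, read by absorbance after 22–24 h at 35° C. Compound range 200 μM to 0.195 μM, imipenem fixed at 1 or 4 μg/ml, bacteria in 1.1×CAMHB from saline suspension diluted 1:100.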

Test [2] concerns Klebsiella pneumoniae expressing VIM-1 (IHMA599644). Described as above. Particulars: K. pneumoniae IHMA599644 (VIM-1), 95% inhibition of growth. The test is classed as cell-based. The essentials: as §2
For test [3], the system named is Serratia marcescens expressing IMP-1 (CL5741). Described as above. It is filed as cell-based. The note with it: S. marcescens CL5741 (IMP-1), 95% inhibition of growth. The essentials: as §2

Chain of NDM-1 (C7C422 29-270, looked up, species assumed): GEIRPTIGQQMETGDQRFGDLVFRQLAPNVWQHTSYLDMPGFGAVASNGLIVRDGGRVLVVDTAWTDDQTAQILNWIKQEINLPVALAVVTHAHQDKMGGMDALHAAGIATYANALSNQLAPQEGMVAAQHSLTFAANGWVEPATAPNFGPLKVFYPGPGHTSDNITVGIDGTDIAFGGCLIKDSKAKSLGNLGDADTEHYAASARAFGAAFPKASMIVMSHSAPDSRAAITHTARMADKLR
Chain of IMP-1 (P52699 19-246, looked up, species assumed): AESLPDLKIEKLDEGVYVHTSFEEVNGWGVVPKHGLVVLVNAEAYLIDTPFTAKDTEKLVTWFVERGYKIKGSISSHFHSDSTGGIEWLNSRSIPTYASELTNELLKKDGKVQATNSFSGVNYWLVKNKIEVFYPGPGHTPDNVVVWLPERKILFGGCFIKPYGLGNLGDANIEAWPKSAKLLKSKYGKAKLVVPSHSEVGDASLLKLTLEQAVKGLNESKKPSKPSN

With `CCC[C@H](C(=O)O)[C@H](Cc1cccc(-c2ccccc2CN2CCCCC2)c1)c1nn[nH]n1` [Example 357, (2S)-2-[(1S)-2-[2′-(piperidin-1-ylmethyl)biphenyl-3-yl]-1-(2H-tetrazol-5-yl)ethyl]pentanoic acid], the IC50 on IMP-1 stood at 2100 nM; on NDM-1, 170 nM; on VIM-1, 63 nM. In addition, in test [1], the “NDM1 EC30016 MITC95” value was found to be 150 µM. Besides, in test [2], the “VIM1 KP599644 MITC95” value came to 150 µM. For the same molecule, the “IMP1 SM5741 MITC95” value in test [3] was found to be 38 µM.
As for `CCC[C@H](C(=O)O)[C@H](Cc1cccc(-c2cccc(CN3CCCCC3)c2)c1)c1nn[nH]n1` [Example 358, (2S)-2-[(1S)-2-[3′-(piperidin-1-ylmethyl)biphenyl-3-yl]-1-(2H-tetrazol-5-yl)ethyl]pentanoic acid], the IC50 at IMP-1 was 1000 nM; at NDM-1, 47 nM; on VIM-1 it was 6.2 nM. The “NDM1 EC30016 MITC95” value in test [1] turned out to be 38 µM. For the same molecule, the “VIM1 KP599644 MITC95” value in test [2] is 62 µM. The “IMP1 SM5741 MITC95” value in test [3] stood at 12.5 µM.
Take `CCC[C@H](C(=O)O)[C@H](Cc1cccc(-c2cccc(CN)c2)c1)c1nn[nH]n1` [Example 359, (2S)-2-[(1S)-2-[3′-(aminomethyl)biphen-yl-3-yl]-1-(2H-tetrazol-5-yl)ethyl]pentanoic acid]: the IC50 on IMP-1 is 750 nM; at NDM-1 it was 60 nM; at VIM-1 it was 2.5 nM. The “NDM1 EC30016 MITC95” value in test [1] came to 9.4 µM. In addition, in test [2], the “VIM1 KP599644 MITC95” value is 6.2 µM. The “IMP1 SM5741 MITC95” value in test [3] turned out to be 12.5 µM.
As for `CCC[C@H](C(=O)O)[C@H](Cc1cccc(N2CCCC(O)C2)c1)c1nn[nH]n1` (stereo partly drawn) [Example 360, (2S)-2-[(1S)-2-[3-(3-hydroxypiperidin-1-yl)phenyl]-1-(2H-tetrazol-5-yl)ethyl]pentanoic acid], the IC50 at IMP-1 was determined as 510 nM; at NDM-1 it was 47 nM; at VIM-1 it was 13 nM. In test [1], the “NDM1 EC30016 MITC95” value turned out to be 25 µM. Besides, the “VIM1 KP599644 MITC95” value in test [2] worked out at 150 µM. Moreover, in test [3], the “IMP1 SM5741 MITC95” value turned out to be 18.8 µM.
Consider `CCC[C@H](C(=O)O)[C@H](Cc1cccc(N(C)CCN(C)C)c1)c1nn[nH]n1` [Example 361, (2S)-2-[(1S)-2-(3-{[2-(dimethylamino)ethyl] (methyl)amino}phenyl)-1-(2H-tetrazol-5-yl)ethyl]pentanoic acid], for which the IC50 at IMP-1 was determined as 8700 nM; on NDM-1, 390 nM; at VIM-1, 29 nM. Besides, the “NDM1 EC30016 MITC95” value in test [1] turned out to be 38 µM. In test [2], the “VIM1 KP599644 MITC95” value was found to be 25 µM. In addition, in test [3], the “IMP1 SM5741 MITC95” value came out at 150 µM.
`CCC[C@H](C(=O)O)[C@H](Cc1cccc(N2CCN(C)CC2)c1)c1nn[nH]n1` [Example 362, (2S)-2-[(1S)-2-[3-(4-methylpiperazin-1-yl)phenyl]-1-(2H-tetrazol-5-yl)ethyl]pentanoic acid]: the values for the IC50 at IMP-1, on NDM-1 and on VIM-1 were 11000 nM, 640 nM and 10 nM, respectively. For the same molecule, the “NDM1 EC30016 MITC95” value in test [1] was 25 µM. For the same molecule, the “VIM1 KP599644 MITC95” value in test [2] amounted to 18.8 µM. The “IMP1 SM5741 MITC95” value in test [3] was 150 µM.
Turning to `CCC[C@H](C(=O)O)[C@H](Cc1cccc(N2CCN(C(C)=O)CC2)c1)c1nn[nH]n1` [Example 363, (2S)-2-[(1S)-2-[3-(4-acetylpiperazin-1-yl)phenyl]-1-(2H-tetrazol-5-yl)ethyl]pentanoic acid], the IC50 on IMP-1 amounted to 810 nM; on NDM-1, 150 nM; on VIM-1, 20 nM. Further, in test [1], the “NDM1 EC30016 MITC95” value amounted to 100 µM. For the same molecule, the “VIM1 KP599644 MITC95” value in test [2] worked out at 100 µM. Also, in test [3], the “IMP1 SM5741 MITC95” value was 25 µM.
Consider `CCC[C@H](C(=O)O)[C@H](Cc1cccc(N2CC[C@@H](N)C2)c1)c1nn[nH]n1` [Example 364, (2S)-2-[(1S)-2-{3-[(3R)-3-aminopyrrolidin-1-yl]phenyl}-1-(2H-tetrazol-5-yl)ethyl]pentanoic acid], for which the IC50 on IMP-1 amounted to 1600 nM; at NDM-1, 110 nM; at VIM-1, 2.4 nM. The “NDM1 EC30016 MITC95” value in test [1] worked out at 9.4 µM. Further, the “VIM1 KP599644 MITC95” value in test [2] was found to be 12.5 µM. In test [3], the “IMP1 SM5741 MITC95” value is 38 µM.
Take `CCC[C@H](C(=O)O)[C@H](Cc1cccc(N2CCOCC2)c1)c1nn[nH]n1` [Example 365, (2S)-2-[(1S)-2-(3-morpholin-4-ylphenyl)-1-(2H-tetrazol-5-yl)ethyl]pentanoic acid]: the figures for the IC50 at IMP-1, on NDM-1 and on VIM-1 were 1500 nM, 82 nM and 20 nM, respectively. The “NDM1 EC30016 MITC95” value in test [1] was 38 µM. Also, the “VIM1 KP599644 MITC95” value in test [2] was 50 µM. The “IMP1 SM5741 MITC95” value in test [3] amounted to 38 µM.
In the case of `CCC[C@H](C(=O)O)[C@H](Cc1cccc(N2CCC[C@H](N)C2)c1)c1nn[nH]n1` [Example 366, (2S)-2-[(1S)-2-{3-[(3S)-3-aminopiperidin-1-yl]phenyl}-1-(2H-tetrazol-5-yl)ethyl]pentanoic acid], the IC50 at IMP-1 amounted to 8600 nM; on NDM-1 it was 870 nM; at VIM-1, 13 nM. Moreover, in test [1], the “NDM1 EC30016 MITC95” value is 50 µM. In test [2], the “VIM1 KP599644 MITC95” value turned out to be 25 µM. Besides, the “IMP1 SM5741 MITC95” value in test [3] came to 150 µM.
Take `CCC[C@H](C(=O)O)[C@H](Cc1cccc(N2CCNC(=O)C2)c1)c1nn[nH]n1` [Example 367, (2S)-2-[(1S)-2-[3-(3-oxopiperazin-1-yl)phenyl]-1-(2H-tetrazol-5-yl)ethyl]pentanoic acid]: the IC50 on IMP-1 is > 20000 nM; at NDM-1 it was 1400 nM; on VIM-1, 260 nM. In addition, in test [1], the “NDM1 EC30016 MITC95” value is >200 µM. For the same molecule, the “VIM1 KP599644 MITC95” value in test [2] was >200 µM. For the same molecule, in test [3], the “IMP1 SM5741 MITC95” value was >200 µM.
`CCC[C@H](C(=O)O)[C@H](Cc1cccc(N2CCCCC2)c1)c1nn[nH]n1` [Example 368, (2S)-2-[(1S)-2-(3-piperidin-1-ylphenyl)-1-(2H-tetrazol-5-yl)ethyl]pentanoic acid]: the IC50 was 740 nM at IMP-1, 46 nM on NDM-1 and 9.7 nM at VIM-1. Also, the “NDM1 EC30016 MITC95” value in test [1] came to 25 µM. For the same molecule, the “VIM1 KP599644 MITC95” value in test [2] turned out to be 50 µM. In addition, in test [3], the “IMP1 SM5741 MITC95” value was 37.5 µM.
In the case of `CCC[C@H](C(=O)O)[C@H](Cc1cccc(N2CC[C@H](N)C2)c1)c1nn[nH]n1` [Example 369, (2S)-2-[(1S)-2-{3-[(3S)-3-aminopyrrolidin-1-yl]phenyl}-1-(2H-tetrazol-5-yl)ethyl]pentanoic acid], the figures for the IC50 at IMP-1, on NDM-1 and at VIM-1 were 2300 nM, 150 nM and 3.2 nM, respectively. Besides, the “NDM1 EC30016 MITC95” value in test [1] came out at 12.5 µM. Besides, the “VIM1 KP599644 MITC95” value in test [2] stood at 12.5 µM. The “IMP1 SM5741 MITC95” value in test [3] amounted to 50 µM.
Take `CCC[C@H](C(=O)O)[C@H](Cc1cccc(N2CCC[C@@H](N)C2)c1)c1nn[nH]n1` [Example 370, (2S)-2-[(1S)-2-{3-[(3R)-3-aminopiperidin-1-yl]phenyl}-1-(2H-tetrazol-5-yl)ethyl]pentanoic acid]: the results for the IC50 on IMP-1, at NDM-1 and at VIM-1 were 9000 nM, 870 nM and 6.3 nM, respectively. The “NDM1 EC30016 MITC95” value in test [1] was found to be 44 µM. In addition, the “VIM1 KP599644 MITC95” value in test [2] is 41 µM. The “IMP1 SM5741 MITC95” value in test [3] turned out to be 175 µM.
Take `CC(C)C[C@H](C(=O)O)[C@H](Cc1ccc(Oc2ccccc2C2CCCN2)nc1)c1nn[nH]n1` (stereo partly drawn) [Example 374, (2S)-4-methyl-2-[(1S)-2-[6-(2-pyrrolidin-2-ylphenoxy)pyridin-3-yl]-1-(2H-tetrazol-5-yl)ethyl]pentanoic acid]: the IC50 stood at 90 nM at IMP-1, 12 nM on NDM-1 and 3 nM at VIM-1. Moreover, the “NDM1 EC30016 MITC95” value in test [1] was 9.4 µM. In addition, the “VIM1 KP599644 MITC95” value in test [2] is 62 µM. In addition, in test [3], the “IMP1 SM5741 MITC95” value stood at 9.4 µM.
Regarding `CC(C)C[C@H](C(=O)O)[C@H](Cc1ccc(Oc2ccccc2C2CCCN2)nc1)c1nn[nH]n1` (stereo partly drawn) [Example 376, (2S)-4-methyl-2-[(1S)-2-[6-(2-pyrrolidin-2-ylphenoxy)pyridin-3-yl]-1-(2H-tetrazol-5-yl)ethyl]pentanoic acid], the IC50 at IMP-1 was 660 nM; on NDM-1, 77 nM; on VIM-1, 4.6 nM. Further, the “NDM1 EC30016 MITC95” value in test [1] worked out at 25 µM. In test [2], the “VIM1 KP599644 MITC95” value worked out at 50 µM. In test [3], the “IMP1 SM5741 MITC95” value is 25 µM.
For `CC(C)C[C@H](C(=O)O)[C@H](Cc1ccc(Oc2ccnc(N3CCNCC3)c2)nc1)c1nn[nH]n1` [Example 379, (2S)-4-methyl-2-[(1S)-2-{6-[(2-piperazin-1-ylpyridin-4-yl)oxy]pyridin-3-yl}-1-(2H-tetrazol-5-yl)ethyl]pentanoic acid], the IC50 stood at 370 nM on IMP-1, 32 nM on NDM-1 and 7.1 nM on VIM-1. Further, the “NDM1 EC30016 MITC95” value in test [1] amounted to 9.4 µM. Besides, in test [2], the “VIM1 KP599644 MITC95” value stood at 100 µM. Further, the “IMP1 SM5741 MITC95” value in test [3] turned out to be 16 µM.

A word on the IC50: it is the midpoint of a concentration-inhibition curve.

Source of the values: patent publication US9839642B2, “Beta-tetrazolyl-propionic acids as metallo-beta-lactamase inhibitors” (priority 2014, dated 2017).
